Results published in patent publication US10723724B2, “Compounds for treating degenerative diseases of central nervous system or brain tumor, and uses thereof” (SUN YAT-SEN UNIVERSITY, priority 2016, dated 2020).

Experiments:
MAP4K4 (HGK) = target: T1, MAP4K4 (HGK) (Homo sapiens, UniProt O95819); experiment: Kinase screening service: MAP4K4; format: biochemical; conditions: average of duplicates
T1 construct: purchased Life Technologies Corporation (Kinase Screening Service)
Method: (§1) The inhibitory effect of PT109 on other kinases including SGK and JNK was detected by the Kinase Screening Service of Life Technologies Corporation (The concentration of compound 9 was 10 μM, measurements were performed in duplicates, and the value was represented by an average) to investigate the selectivity of the compound for JNK and SGK1.

CSNK1A1 (CK1 alpha 1) = target: T2, CSNK1A1 (CK1 alpha 1) (Homo sapiens, UniProt P48729); experiment: Kinase screening service: CSNK1A1; format: biochemical; conditions: average of duplicates
T2 construct: purchased Life Technologies Corporation (Kinase Screening Service)
Method: as §1

[1] = target: T3, PIK3CA/PIK3R1 (p110 alpha/p85 alpha) (Homo sapiens, UniProt P42336); experiment: Kinase screening service: PIK3CA/PIK3R1; format: biochemical; conditions: average of duplicates
T3 construct: purchased Life Technologies Corporation (Kinase Screening Service)
Method: as §1

TLK1 = target: T4, TLK1 (Homo sapiens, UniProt Q9UKI8); experiment: Kinase screening service: TLK1; format: biochemical; conditions: average of duplicates
T4 construct: purchased Life Technologies Corporation (Kinase Screening Service)
Method: as §1

MAPK9 (JNK2) = target: T5, MAPK9 (JNK2) (Homo sapiens, UniProt P45984); experiment: Kinase screening service (Life Technologies): JNK2; format: biochemical; conditions: average of duplicates
T5 construct: purchased Life Technologies Corporation (kinase screening service)
Method: (§2) The inhibitory effect of PT109 on SGK and INK was detected by the kinase screening commercialization service of Life Technologies Corporation.
as §1

NTRK3 (TRKC) = target: T6, NTRK3 (TRKC) (Homo sapiens, UniProt Q16288); experiment: Kinase screening service: NTRK3; format: biochemical; conditions: average of duplicates
T6 construct: purchased Life Technologies Corporation (Kinase Screening Service)
Method: as §1

CDK1/cyclin B = target: T7, CDK1/cyclin B (Homo sapiens, UniProt P06493); experiment: Kinase screening service: CDK1/cyclin B; format: biochemical; conditions: average of duplicates
T7 construct: purchased Life Technologies Corporation (Kinase Screening Service)
Method: as §1

FLT1 (VEGFR1) = target: T8, FLT1 (VEGFR1) (Homo sapiens, UniProt P17948); experiment: Kinase screening service: FLT1; format: biochemical; conditions: average of duplicates
T8 construct: purchased Life Technologies Corporation (Kinase Screening Service)
Method: as §1

TEC = target: T9, TEC (Homo sapiens, UniProt P42680); experiment: Kinase screening service: TEC; format: biochemical; conditions: average of duplicates
T9 construct: purchased Life Technologies Corporation (Kinase Screening Service)
Method: as §1

CSNK1D (CK1 delta) = target: T10, CSNK1D (CK1 delta) (Homo sapiens, UniProt P48730); experiment: Kinase screening service: CSNK1D; format: biochemical; conditions: average of duplicates
T10 construct: purchased Life Technologies Corporation (Kinase Screening Service)
Method: as §1

[2] = target: T11, PIK3CD/PIK3R1 (p110 delta/p85 alpha) (Homo sapiens, UniProt O00329); experiment: Kinase screening service: PIK3CD/PIK3R1; format: biochemical; conditions: average of duplicates
T11 construct: purchased Life Technologies Corporation (Kinase Screening Service)
Method: as §1

CSNK1G2 (CK1 gamma 2) = target: T12, CSNK1G2 (CK1 gamma 2) (Homo sapiens, UniProt P78368); experiment: Kinase screening service: CSNK1G2; format: biochemical; conditions: average of duplicates
T12 construct: purchased Life Technologies Corporation (Kinase Screening Service)
Method: as §1

TAOK2 (TAO1) = target: T13, TAOK2 (TAO1) (Homo sapiens, UniProt Q9UL54); experiment: Kinase screening service: TAOK2; format: biochemical; conditions: average of duplicates
T13 construct: purchased Life Technologies Corporation (Kinase Screening Service)
Method: as §1

ULK1 = target: T14, ULK1 (Homo sapiens, UniProt O75385); experiment: Kinase screening service: ULK1; format: biochemical; conditions: average of duplicates
T14 construct: purchased Life Technologies Corporation (Kinase Screening Service)
Method: as §1

CSNK2A1 (CK2 alpha 1) = target: T15, CSNK2A1 (CK2 alpha 1) (Homo sapiens, UniProt P68400); experiment: Kinase screening service: CSNK2A1; format: biochemical; conditions: average of duplicates
T15 construct: purchased Life Technologies Corporation (Kinase Screening Service)
Method: as §1

MKNK2 (MNK2) = target: T16, MKNK2 (MNK2) (Homo sapiens, UniProt Q9HBH9); experiment: Kinase screening service: MKNK2; format: biochemical; conditions: average of duplicates
T16 construct: purchased Life Technologies Corporation (Kinase Screening Service)
Method: as §1

HT-22 cells = experiment: Effect on ROS (DHE staining) in HT-22 cells; format: cell-based; conditions: PT109 at 10 μM, 2 mM glutamine 10 h
Method: DHE staining was adopted to detect the formation of oxygen free radicals. The HT-22 cells were cultured in DMEM+10% fetal bovine serum and placed in a 5% CO2 incubator at 37° C. The cells were seeded in a poly-lysine-coated 24-well plate at a suitable density. After cell adherence, the PT109 separately prepared in the medium was added to the corresponding wells. Upon treatment for 30 min, 2 mM glutamine was added and treated for 10 h. The cells were harvested, and incubated with DHE dye for about 30 min. DHE dye was washed, and the fluorescence intensity of DHE was detected by a high-content system.

SGK2 = target: T17, SGK2 (Homo sapiens, UniProt Q9HBY8); experiment: Kinase screening service (Life Technologies): SGK2; format: biochemical
T17 construct: purchased Life Technologies Corporation (kinase screening service)
From the text: as §2

TBK1 = target: T18, TBK1 (Homo sapiens, UniProt Q9UHD2); experiment: Kinase screening service: TBK1; format: biochemical; conditions: average of duplicates
T18 construct: purchased Life Technologies Corporation (Kinase Screening Service)
Method: as §1

DYRK1A = target: T19, DYRK1A (Homo sapiens, UniProt Q13627); experiment: Kinase screening service: DYRK1A; format: biochemical; conditions: average of duplicates
T19 construct: purchased Life Technologies Corporation (Kinase Screening Service)
Method: as §1

MAP3K9 (MLK1) = target: T20, MAP3K9 (MLK1) (Homo sapiens, UniProt P80192); experiment: Kinase screening service: MAP3K9; format: biochemical; conditions: average of duplicates
T20 construct: purchased Life Technologies Corporation (Kinase Screening Service)
Method: as §1

NEK7 = target: T21, NEK7 (Homo sapiens, UniProt Q8TDX7); experiment: Kinase screening service: NEK7; format: biochemical; conditions: average of duplicates
T21 construct: purchased Life Technologies Corporation (Kinase Screening Service)
Method: as §1

PRKCB1 (PKC beta I) = target: T22, PRKCB1 (PKC beta I) (Homo sapiens, UniProt P05771); experiment: Kinase screening service: PRKCB1; format: biochemical; conditions: average of duplicates
T22 construct: purchased Life Technologies Corporation (Kinase Screening Service)
Method: as §1

T15 sequence (P68400 whole entry): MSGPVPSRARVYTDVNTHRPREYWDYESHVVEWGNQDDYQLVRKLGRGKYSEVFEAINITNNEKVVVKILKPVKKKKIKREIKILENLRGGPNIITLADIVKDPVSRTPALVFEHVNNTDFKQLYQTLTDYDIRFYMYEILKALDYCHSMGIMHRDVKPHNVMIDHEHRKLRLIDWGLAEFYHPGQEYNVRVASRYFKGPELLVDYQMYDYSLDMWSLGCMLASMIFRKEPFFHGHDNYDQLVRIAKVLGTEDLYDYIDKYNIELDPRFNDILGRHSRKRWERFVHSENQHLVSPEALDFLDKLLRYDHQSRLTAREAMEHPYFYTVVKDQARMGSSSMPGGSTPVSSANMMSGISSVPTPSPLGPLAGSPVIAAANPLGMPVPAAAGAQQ
T9 sequence (P42680 whole entry): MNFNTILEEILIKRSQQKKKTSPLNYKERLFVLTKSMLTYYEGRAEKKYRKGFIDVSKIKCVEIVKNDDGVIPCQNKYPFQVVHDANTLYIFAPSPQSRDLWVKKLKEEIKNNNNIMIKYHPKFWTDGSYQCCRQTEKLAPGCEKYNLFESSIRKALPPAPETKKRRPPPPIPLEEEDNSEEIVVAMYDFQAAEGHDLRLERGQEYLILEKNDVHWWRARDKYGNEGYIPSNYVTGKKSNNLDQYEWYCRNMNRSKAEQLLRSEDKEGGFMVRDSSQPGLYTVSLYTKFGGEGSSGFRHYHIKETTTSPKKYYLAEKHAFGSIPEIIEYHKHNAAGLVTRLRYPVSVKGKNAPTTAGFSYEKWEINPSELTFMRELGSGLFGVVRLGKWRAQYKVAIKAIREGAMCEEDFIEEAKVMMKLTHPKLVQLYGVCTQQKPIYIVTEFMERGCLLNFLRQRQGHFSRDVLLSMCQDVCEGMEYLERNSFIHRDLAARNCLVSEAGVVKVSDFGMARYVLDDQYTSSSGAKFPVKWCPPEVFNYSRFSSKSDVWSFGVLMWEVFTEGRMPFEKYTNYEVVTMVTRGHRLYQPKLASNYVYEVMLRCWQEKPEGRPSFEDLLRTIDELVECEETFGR
T1 sequence (O95819 whole entry): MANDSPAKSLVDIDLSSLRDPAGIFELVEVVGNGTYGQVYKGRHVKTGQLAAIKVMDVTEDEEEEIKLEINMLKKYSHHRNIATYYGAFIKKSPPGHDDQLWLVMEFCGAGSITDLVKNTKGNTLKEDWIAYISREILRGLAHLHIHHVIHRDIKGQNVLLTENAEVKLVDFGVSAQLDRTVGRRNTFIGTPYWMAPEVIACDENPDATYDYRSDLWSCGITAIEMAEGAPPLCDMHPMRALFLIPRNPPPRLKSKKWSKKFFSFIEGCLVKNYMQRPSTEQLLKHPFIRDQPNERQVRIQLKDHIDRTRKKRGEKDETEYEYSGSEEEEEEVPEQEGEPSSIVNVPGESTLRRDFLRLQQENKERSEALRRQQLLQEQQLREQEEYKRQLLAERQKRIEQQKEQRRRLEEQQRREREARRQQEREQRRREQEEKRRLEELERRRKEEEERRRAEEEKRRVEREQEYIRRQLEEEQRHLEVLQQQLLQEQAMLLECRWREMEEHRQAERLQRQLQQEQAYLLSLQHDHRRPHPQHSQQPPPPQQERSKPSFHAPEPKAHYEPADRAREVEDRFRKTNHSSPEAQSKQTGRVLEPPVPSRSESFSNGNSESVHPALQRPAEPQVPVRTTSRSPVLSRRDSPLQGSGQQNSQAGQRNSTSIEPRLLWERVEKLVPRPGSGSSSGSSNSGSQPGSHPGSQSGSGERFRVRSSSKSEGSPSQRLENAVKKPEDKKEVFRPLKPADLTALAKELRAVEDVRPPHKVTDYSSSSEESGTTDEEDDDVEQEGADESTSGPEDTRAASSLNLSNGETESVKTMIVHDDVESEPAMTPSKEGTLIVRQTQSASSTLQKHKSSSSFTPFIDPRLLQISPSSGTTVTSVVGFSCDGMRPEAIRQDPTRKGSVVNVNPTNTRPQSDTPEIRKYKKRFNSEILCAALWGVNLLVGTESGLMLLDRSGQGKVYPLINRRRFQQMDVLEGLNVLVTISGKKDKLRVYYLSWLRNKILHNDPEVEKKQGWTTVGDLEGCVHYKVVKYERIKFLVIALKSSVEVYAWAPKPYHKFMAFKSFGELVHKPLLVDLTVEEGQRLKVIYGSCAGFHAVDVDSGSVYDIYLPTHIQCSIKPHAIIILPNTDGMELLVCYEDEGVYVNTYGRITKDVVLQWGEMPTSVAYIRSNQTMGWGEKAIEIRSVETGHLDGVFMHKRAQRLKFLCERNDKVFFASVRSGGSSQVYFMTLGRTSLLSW
T12 sequence (P78368 whole entry): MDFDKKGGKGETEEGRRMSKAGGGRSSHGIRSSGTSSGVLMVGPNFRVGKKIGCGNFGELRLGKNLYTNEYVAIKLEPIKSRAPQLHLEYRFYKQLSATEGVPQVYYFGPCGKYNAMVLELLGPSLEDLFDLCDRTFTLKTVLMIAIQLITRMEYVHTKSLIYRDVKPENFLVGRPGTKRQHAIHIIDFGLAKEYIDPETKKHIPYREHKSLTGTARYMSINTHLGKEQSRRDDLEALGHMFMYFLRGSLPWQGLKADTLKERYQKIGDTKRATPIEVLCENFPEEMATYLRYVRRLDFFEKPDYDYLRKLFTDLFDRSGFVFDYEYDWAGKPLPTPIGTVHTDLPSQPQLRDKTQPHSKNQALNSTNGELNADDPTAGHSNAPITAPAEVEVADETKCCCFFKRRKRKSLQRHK
T5 sequence (P45984 whole entry): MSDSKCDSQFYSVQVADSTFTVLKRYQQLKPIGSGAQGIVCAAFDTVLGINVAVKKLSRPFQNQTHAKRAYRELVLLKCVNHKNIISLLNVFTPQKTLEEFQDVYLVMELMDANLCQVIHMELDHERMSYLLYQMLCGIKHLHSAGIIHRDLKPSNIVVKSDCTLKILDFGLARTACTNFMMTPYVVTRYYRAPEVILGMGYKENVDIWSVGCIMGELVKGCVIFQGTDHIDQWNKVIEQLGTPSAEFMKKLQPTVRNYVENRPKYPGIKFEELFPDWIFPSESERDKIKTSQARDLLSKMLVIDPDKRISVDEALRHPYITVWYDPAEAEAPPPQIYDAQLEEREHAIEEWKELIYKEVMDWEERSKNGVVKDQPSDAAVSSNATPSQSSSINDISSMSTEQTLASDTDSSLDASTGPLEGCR
T14 sequence (O75385 whole entry): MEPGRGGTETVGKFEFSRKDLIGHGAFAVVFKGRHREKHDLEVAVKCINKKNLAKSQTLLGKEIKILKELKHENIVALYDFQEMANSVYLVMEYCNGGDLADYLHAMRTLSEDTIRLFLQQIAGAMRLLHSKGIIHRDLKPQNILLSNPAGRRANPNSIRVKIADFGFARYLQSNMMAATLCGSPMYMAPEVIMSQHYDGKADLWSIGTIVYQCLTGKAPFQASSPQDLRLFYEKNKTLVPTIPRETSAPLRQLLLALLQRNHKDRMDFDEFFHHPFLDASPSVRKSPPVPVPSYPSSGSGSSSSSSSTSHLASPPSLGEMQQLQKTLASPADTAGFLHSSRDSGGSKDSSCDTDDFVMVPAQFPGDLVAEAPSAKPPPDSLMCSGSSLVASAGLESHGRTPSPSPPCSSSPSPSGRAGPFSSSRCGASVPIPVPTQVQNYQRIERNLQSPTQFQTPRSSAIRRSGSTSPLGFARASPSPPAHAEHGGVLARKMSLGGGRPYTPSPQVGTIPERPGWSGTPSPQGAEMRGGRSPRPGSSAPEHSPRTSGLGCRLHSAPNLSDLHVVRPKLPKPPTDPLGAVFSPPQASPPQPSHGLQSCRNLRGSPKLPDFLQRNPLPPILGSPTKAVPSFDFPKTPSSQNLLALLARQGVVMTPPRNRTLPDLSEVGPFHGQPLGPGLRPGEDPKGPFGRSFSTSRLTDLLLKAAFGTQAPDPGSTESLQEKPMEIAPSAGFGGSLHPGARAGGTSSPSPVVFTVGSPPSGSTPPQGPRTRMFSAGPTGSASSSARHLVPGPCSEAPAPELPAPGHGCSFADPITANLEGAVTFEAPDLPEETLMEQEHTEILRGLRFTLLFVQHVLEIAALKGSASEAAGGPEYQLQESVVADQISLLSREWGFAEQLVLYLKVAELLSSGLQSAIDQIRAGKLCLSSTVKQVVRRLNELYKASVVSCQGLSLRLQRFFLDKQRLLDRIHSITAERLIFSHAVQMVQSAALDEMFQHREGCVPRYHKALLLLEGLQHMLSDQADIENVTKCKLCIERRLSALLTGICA
T16 sequence (Q9HBH9 whole entry): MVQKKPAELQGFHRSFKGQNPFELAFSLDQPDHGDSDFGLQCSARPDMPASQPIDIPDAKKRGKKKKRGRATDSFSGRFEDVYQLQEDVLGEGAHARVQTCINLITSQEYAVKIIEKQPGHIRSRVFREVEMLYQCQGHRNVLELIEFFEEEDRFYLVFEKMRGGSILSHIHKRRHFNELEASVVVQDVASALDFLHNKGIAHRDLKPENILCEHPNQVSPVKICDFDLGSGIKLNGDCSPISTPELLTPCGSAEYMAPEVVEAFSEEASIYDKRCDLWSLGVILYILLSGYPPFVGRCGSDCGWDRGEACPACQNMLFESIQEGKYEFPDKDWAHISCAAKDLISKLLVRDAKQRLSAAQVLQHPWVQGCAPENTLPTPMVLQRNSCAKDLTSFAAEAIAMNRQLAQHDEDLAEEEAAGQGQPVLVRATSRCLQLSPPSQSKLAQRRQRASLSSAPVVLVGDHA
T2 sequence (P48729 whole entry): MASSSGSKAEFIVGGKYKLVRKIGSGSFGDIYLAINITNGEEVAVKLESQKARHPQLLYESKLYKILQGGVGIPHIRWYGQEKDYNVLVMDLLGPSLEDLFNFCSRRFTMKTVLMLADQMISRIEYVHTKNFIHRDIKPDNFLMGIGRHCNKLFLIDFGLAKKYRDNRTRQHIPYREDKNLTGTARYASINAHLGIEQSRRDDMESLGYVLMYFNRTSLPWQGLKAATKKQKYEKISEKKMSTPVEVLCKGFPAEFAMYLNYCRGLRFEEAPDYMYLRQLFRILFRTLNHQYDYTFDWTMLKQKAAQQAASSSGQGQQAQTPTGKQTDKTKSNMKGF

In the case of `O=C(CCCCC1CCSS1)NC1CCC(Nc2cccc3cnccc23)CC1` (centres unmarked) [PT109, 5-(1,2-dithiolan-3-yl)-N-(4-(isoquinolin-5-ylamino)cyclohexyl) pentanamide], the inhibition at 10 µM (MAP4K4 (HGK)) is reported as 34%, the inhibition at 10 µM (CSNK1A1 (CK1 alpha 1)) is reported as 3% and the inhibition at 10 µM [1] is reported as 56%. The inhibition at 10 µM (TLK1) was 20%, the inhibition at 10 µM (MAPK9 (JNK2)) was 91% and the inhibition at 10 µM (NTRK3 (TRKC)) was 28%. It also gave an inhibition at 10 µM (CDK1/cyclin B) of 14%, an inhibition at 10 µM (FLT1 (VEGFR1)) of 3% and an inhibition at 10 µM (TEC) of 26%. It also gave an inhibition at 10 µM (CSNK1D (CK1 delta)) of 6%, an inhibition at 10 µM [2] of 48% and an inhibition at 10 µM (CSNK1G2 (CK1 gamma 2)) of 15%. For the same compound, the inhibition at 10 µM (TAOK2 (TAO1)) was -6%, the inhibition at 10 µM (ULK1) was 26% and the inhibition at 10 µM (CSNK2A1 (CK2 alpha 1)) was 14%. The inhibition at 10 µM (MKNK2 (MNK2)) was 26%, the “glutamine-induced ROS elevation (DHE fluorescence)” value (HT-22 cells) was “significantly reduced” and the IC50 (SGK2) was 5.6 µM. It also gave an inhibition at 10 µM (TBK1) of 10%, an inhibition at 10 µM (DYRK1A) of 16% and an inhibition at 10 µM (MAP3K9 (MLK1)) of 2%. It also gave an inhibition at 10 µM (NEK7) of 2% and an inhibition at 10 µM (PRKCB1 (PKC beta I)) of -10%.
